Test results as given in publication PMC4279175, “Mechanisms Underlying the Antinociceptive, Antiedematogenic, and Anti-Inflammatory Activity of the Main Flavonoid from Kalanchoe pinnata” (Evidence-based Complementary and Alternative Medicine : eCAM, 2014).

Key:
COX-2 = target: T1, COX-2 (Ovis aries, UniProt P79208); experiment: colorimetric COX (ovine) inhibitor screening assay kit (Cayman […]); […] maximum inhibition at […]; format: biochemical
T1 construct: gene PTGS2
T1 sequence (P79208 17-603): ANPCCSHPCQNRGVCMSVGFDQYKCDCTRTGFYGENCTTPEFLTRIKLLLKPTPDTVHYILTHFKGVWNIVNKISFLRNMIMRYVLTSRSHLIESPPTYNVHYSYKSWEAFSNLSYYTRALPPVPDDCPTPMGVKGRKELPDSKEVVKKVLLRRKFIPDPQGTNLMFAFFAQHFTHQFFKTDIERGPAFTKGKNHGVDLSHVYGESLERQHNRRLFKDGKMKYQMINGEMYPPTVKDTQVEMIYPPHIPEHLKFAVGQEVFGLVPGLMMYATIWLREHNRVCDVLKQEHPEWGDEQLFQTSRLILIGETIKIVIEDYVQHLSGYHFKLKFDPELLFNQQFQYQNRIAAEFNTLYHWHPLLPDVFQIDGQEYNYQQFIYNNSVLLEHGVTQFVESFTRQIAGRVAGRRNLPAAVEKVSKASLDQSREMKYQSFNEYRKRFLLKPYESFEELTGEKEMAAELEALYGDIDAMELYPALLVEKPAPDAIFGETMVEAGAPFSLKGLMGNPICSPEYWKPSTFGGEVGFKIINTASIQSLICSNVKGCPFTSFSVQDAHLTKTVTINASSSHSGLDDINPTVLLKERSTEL

COX-1 = target: T2, COX-1 (Ovis aries, UniProt P05979); experiment: colorimetric COX (ovine) inhibitor screening assay kit (Cayman […]); format: biochemical
T2 construct: gene PTGS1
T2 sequence (P05979 25-600): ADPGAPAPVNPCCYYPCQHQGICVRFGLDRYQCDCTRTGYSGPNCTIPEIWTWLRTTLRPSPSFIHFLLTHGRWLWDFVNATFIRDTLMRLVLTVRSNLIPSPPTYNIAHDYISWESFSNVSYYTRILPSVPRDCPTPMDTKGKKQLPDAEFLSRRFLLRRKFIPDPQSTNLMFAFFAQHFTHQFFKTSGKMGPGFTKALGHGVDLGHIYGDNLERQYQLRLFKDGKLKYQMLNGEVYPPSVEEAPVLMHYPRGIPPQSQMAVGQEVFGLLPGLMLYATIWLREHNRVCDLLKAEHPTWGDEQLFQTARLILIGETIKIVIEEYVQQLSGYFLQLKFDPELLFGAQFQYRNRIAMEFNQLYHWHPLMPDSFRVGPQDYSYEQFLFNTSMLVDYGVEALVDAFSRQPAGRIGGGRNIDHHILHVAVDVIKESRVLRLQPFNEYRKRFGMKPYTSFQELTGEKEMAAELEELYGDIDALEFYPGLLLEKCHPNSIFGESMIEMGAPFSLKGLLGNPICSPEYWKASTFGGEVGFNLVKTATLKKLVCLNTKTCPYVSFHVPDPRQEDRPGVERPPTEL

C[C@@H]1O[C@@H](Oc2c(-c3ccc(O)c(O)c3)oc3cc(O)cc(O)c3c2=O)[C@H](O[C@@H]2OC[C@H](O)[C@H](O)[C@H]2O)[C@H](O)[C@H]1O [KPFV, quercetin 3-O-α-L-arabinopyranosyl (1 → 2) α-L-rhamnopyranoside] was tested, and the IC50 (COX-2) was over 84 µM and the IC50 (COX-1) was 38 µM.
